Results reported in patent US9834542B2, “LXR modulators” (BRISTOL-MYERS SQUIBB COMPANY, priority 2013, dated 2017).

Target: T1, LXRβ (Homo sapiens, UniProt P55055)
T1 construct: Co-transfection expression plasmids, comprising full-length LXRα (pCMX-h LXRα[…] or LXRβ (pCMX-hLXRβ)); expressed in transfected cells; host or cells: CV-1 African Green Monkey Kidney Cells
T1 sequence (P55055 1-460): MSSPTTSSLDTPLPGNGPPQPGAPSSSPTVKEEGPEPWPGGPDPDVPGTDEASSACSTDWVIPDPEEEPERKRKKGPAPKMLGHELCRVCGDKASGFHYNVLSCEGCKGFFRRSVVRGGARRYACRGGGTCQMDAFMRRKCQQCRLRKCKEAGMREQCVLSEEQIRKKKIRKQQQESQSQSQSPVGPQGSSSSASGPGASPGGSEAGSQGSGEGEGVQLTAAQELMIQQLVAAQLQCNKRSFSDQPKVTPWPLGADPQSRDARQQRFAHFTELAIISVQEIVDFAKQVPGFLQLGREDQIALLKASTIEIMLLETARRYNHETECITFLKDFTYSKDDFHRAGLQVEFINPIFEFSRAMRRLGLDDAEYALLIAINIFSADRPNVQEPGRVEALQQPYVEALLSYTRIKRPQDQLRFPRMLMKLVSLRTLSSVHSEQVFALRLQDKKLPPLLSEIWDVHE
T1 sequence (P19793 1-462 partner): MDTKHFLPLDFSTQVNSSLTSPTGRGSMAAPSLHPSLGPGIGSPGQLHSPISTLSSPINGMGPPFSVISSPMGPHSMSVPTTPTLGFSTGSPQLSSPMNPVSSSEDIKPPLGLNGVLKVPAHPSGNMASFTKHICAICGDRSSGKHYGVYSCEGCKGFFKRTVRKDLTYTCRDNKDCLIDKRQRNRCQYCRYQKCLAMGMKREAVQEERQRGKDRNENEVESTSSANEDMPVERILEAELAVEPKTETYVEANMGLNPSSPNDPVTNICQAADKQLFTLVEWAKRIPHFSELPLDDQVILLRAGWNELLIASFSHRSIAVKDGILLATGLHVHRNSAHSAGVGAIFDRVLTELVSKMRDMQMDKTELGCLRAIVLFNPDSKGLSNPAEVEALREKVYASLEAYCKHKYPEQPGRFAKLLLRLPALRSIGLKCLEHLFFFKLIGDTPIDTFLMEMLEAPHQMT
Assay: Co-transfection assay (LXRE luciferase reporter), LXRβ
Type: cell-based
Settings: for EC50: CV-1 cells transfected with pCMX-hLXRβ and LXREx1-Tk-Luciferase, 20 hours incubation; for Emax: LXRβ co-transfection, relative to high control 1-(2,4-difluorobenzyl)-2-oxo-6-(4-phenoxyphenyl)-4-(trifluoromethyl)-1,2-dihydropyridine-3-carbonitrile, read-out: % Efficacy
Procedure, shortened: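 CV-1 cells transiently co-transfected with full-length human LXRβ (or LXRα), LXREx1-Tk-luciferase reporter and β-galactosidase control; compound added (10 μM final in single-point, 11-point ½-log curves, ≤0.5% DMSO) for 20 h at 37 °C. Luciferase read; EC50 from four-parameter fit, efficacy relative to reference agonist high control.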

| EC50 [nM] | Emax [%] | SMILES |
| --- | --- | --- |
| 118 | 70 | Cc1nc(-c2cc(-c3cc(F)c(CO)c(S(C)(=O)=O)c3)ccc2-n2cc(C(F)(F)F)nc2C)c(-c2ccc(OC(CF)CF)c(F)c2)o1 [Example 407, (3′-(5-(4-(1,3-difluoropropan-2-yloxy)-3-fluorophenyl)-2-methyloxazol-4-yl)-3-fluoro-4′-(2-methyl-4-(trifluoromethyl)-1H-imidazol-1-yl)-5-(methylsulfonyl)biphenyl-4-yl)methanol] |
| 605 | 65 | Cc1nc(C(F)(F)F)cn1-c1ccc(-c2cccc(S(C)(=O)=O)c2)cc1-n1nncc1-c1ccc2c(c1)OCO2 [Example 29, 5-(1,3-benzodioxol-5-yl)-1-{3′-(methylsulfonyl)-4-[2-methyl-4-(trifluoromethyl)-1H-imidazol-1-yl]biphenyl-3-yl}-1H-1,2,3-triazole] |
| 942 | 98 | CS(=O)(=O)c1cccc(-c2ccc(-n3cc(C(F)(F)F)nc3Cl)c(-n3nncc3-c3ccc(Cl)cc3Cl)c2)c1 [Example 143, 1-{4-[2-chloro-4-(trifluoromethyl)-1H-imidazol-1-yl]-3′-(methylsulfonyl)biphenyl-3-yl}-5-(2,4-dichlorophenyl)-1H-1,2,3-triazole] |
| 34 | 71 | Cc1nc(-c2cc(-c3cccc(S(C)(=O)=O)c3)ccc2-n2cc(C(F)(F)F)nc2C)c(-c2ccc(OC(F)F)cc2Cl)o1 [Example 396, 5-(2-chloro-4-(difluoromethoxy)phenyl)-2-methyl-4-(4-(2-methyl-4-(trifluoromethyl)-1H-imidazol-1-yl)-3′-(methylsulfonyl)biphenyl-3-yl)oxazole] |
| 63 | 71 | Cc1ccc(-c2oc(C)nc2-c2cc(-c3cccc(S(C)(=O)=O)c3)ccc2-n2cc(C(F)(F)F)nc2C)cc1 [Example 491, 2-methyl-4-(4-(2-methyl-4-(trifluoromethyl)-1H-imidazol-1-yl)-3′-(methylsulfonyl)-[1,1′-biphenyl]-3-yl)-5-(p-tolyl)oxazole] |
| 945 | 81 | Cc1ccc(-c2cnnn2-c2cc(-c3cccc(S(C)(=O)=O)c3)ccc2-n2cc(C(F)F)nc2C)cc1 [Example 168, 1-{4-[4-(difluoromethyl)-2-methyl-1H-imidazol-1-yl]-3′-(methylsulfonyl)biphenyl-3-yl}-5-(4-methylphenyl)-1H-1,2,3-triazole] |
| 201 | 45 | CCOc1ncc(-c2oc(C)nc2-c2cc(-c3cccc(S(C)(=O)=O)c3)ccc2-n2cc(C(F)(F)F)nc2C)cc1F [Example 471, 5-(6-ethoxy-5-fluoropyridin-3-yl)-2-methyl-4-(4-(2-methyl-4-(trifluoromethyl)-1H-imidazol-1-yl)-3′-(methylsulfonyl)biphenyl-3-yl)oxazole] |
| 127 | 61 | Cc1nc(-c2cc(-c3cc(F)c(CO)c(S(C)(=O)=O)c3)ccc2-n2cc(C(F)(F)F)nc2C)c(-c2ccc(F)c(OC(F)F)c2)o1 [Example 461, (3′-(5-(3-(difluoromethoxy)-4-fluorophenyl)-2-methyloxazol-4-yl)-3-fluoro-4′-(2-methyl-4-(trifluoromethyl)-1H-imidazol-1-yl)-5-(methylsulfonyl)biphenyl-4-yl)methanol] |
| 61 | 74 | Cc1nc(-c2cc(-c3cccc(S(C)(=O)=O)c3)ccc2-n2cc(Cl)nc2C)c(-c2ccc3c(c2)OC(F)(F)O3)o1 [Example 423, 4-(4-(4-chloro-2-methyl-1H-imidazol-1-yl)-3′-(methylsulfonyl)biphenyl-3-yl)-5-(2,2-difluorobenzo[d][1,3]dioxol-5-yl)-2-methyloxazole] |
| 64 | 56 | Cc1nc(-c2cc(-c3cc(F)c(CO)c(S(C)(=O)=O)c3)ccc2-n2cc(C(F)(F)F)nc2C)c(-c2ccc(OC(F)F)c(OC(F)F)c2)o1 [Example 393, (3′-(5-(3,4-bis(difluoromethoxy)phenyl)-2-methyloxazol-4-yl)-3-fluoro-4′-(2-methyl-4-(trifluoromethyl)-1H-imidazol-1-yl)-5-(methylsulfonyl)biphenyl-4-yl)methanol] |
| 1130 | 104 | CCS(=O)(=O)c1cccc(-c2ccc(-n3cc(C(F)F)nc3C)c(-n3nncc3-c3ccc(OC(F)(F)F)cc3)c2)c1 [Example 157, 1-{4-[4-(difluoromethyl)-2-methyl-1H-imidazol-1-yl]-3′-(ethylsulfonyl)biphenyl-3-yl}-5-{4-[(trifluoromethyl)oxy]phenyl}-1H-1,2,3-triazole] |
| 185 | 88 | Cc1nc(C(F)F)cn1-c1ccc(-c2cc(F)c(CO)c(S(C)(=O)=O)c2)cc1-c1cnnn1Cc1ccc(Cl)cc1 [Example 248, (3′-(1-(4-chlorobenzyl)-1H-1,2,3-triazol-5-yl)-4′-(4-(difluoromethyl)-2-methyl-1H-imidazol-1-yl)-3-fluoro-5-(methylsulfonyl)-[1,1′-biphenyl]-4-yl)methanol] |
| 240 | 45 | COc1ncc(-c2oc(C)nc2-c2cc(-c3cc(F)c(CO)c(S(C)(=O)=O)c3)ccc2-n2cc(Cl)nc2C)cc1F [Example 465, (4′-(4-chloro-2-methyl-1H-imidazol-1-yl)-3-fluoro-3′-(5-(5-fluoro-6-methoxypyridin-3-yl)-2-methyloxazol-4-yl)-5-(methylsulfonyl)biphenyl-4-yl)methanol] |
| 264 | 148 | Cc1nc(C(F)F)c(Cl)n1-c1ccc(-c2cc(F)c(CO)c(S(C)(=O)=O)c2)cc1-n1nncc1-c1ccc(OC(F)(F)F)cc1 [Example 173, {4′-[5-chloro-4-(difluoromethyl)-2-methyl-1H-imidazol-1-yl]-3-fluoro-5-(methylsulfonyl)-3′-(5-{4-[(trifluoromethyl)oxy]phenyl}-1H-1,2,3-triazol-1-yl)biphenyl-4-yl}methanol] |
| 180 | 110 | Cc1nc(C(F)(F)F)c(Cl)n1-c1ccc(-c2cccc(S(C)(=O)=O)c2)cc1-n1nncc1-c1ccc(OC(F)(F)F)cc1 [Example 55, 1-{4-[5-chloro-2-methyl-4-(trifluoromethyl)-1H-imidazol-1-yl]-3′-(methylsulfonyl)biphenyl-3-yl}-5-{4-[(trifluoromethyl)oxy]phenyl}-1H-1,2,3-triazole] |
| 512 | 90 | COc1ccc(-c2cnnn2-c2cc(-c3cccc(S(C)(=O)=O)c3)ccc2-n2cc(C(F)(F)F)nc2C)c(C)c1 [Example 24, 5-[2-methyl-4-(methyloxy)phenyl]-1-{3′-(methylsulfonyl)-4-[2-methyl-4-(trifluoromethyl)-1H-imidazol-1-yl]biphenyl-3-yl}-1H-1,2,3-triazole] |
| 127 | 50 | Cc1nc(-c2cc(-c3cccc(S(C)(=O)=O)c3)ccc2-n2cc(C(F)(F)F)nc2C)c(-c2cccc(OC(F)(F)F)c2)o1 [Example 573, 2-methyl-4-(4-(2-methyl-4-(trifluoromethyl)-1H-imidazol-1-yl)-3′-(methylsulfonyl)-[1,1′-biphenyl]-3-yl)-5-(3-(trifluoromethoxy)phenyl)oxazole] |
| 68 | 59 | Cc1nc(-c2cc(-c3cc(F)c(CO)c(S(C)(=O)=O)c3)ccc2-n2cc(C(F)(F)F)nc2C)c(-c2ccc(OCC3CC3)c(F)c2)o1 [Example 405, (3′-(5-(4-(cyclopropylmethoxy)-3-fluorophenyl)-2-methyloxazol-4-yl)-3-fluoro-4′-(2-methyl-4-(trifluoromethyl)-1H-imidazol-1-yl)-5-(methylsulfonyl)biphenyl-4-yl)methanol] |
| 930 | 92 | Cc1ccc(C(C)c2cnnn2-c2cc(-c3cccc(S(C)(=O)=O)c3)ccc2-n2cc(C(F)(F)F)nc2C)cc1 (stereo not shown) [Example 111, 5-[1-(4-methylphenyl)ethyl]-1-{3′-(methylsulfonyl)-4-[2-methyl-4-(trifluoromethyl)-1H-imidazol-1-yl]biphenyl-3-yl}-1H-1,2,3-triazole] |
| 157 | 49 | Cc1nc(-c2cc(-c3cccc(S(C)(=O)=O)c3)ccc2-n2cc(C(F)(F)F)nc2C)c(-c2ccc(SC(F)(F)F)cc2)o1 [Example 571, 2-methyl-4-(4-(2-methyl-4-(trifluoromethyl)-1H-imidazol-1-yl)-3′-(methylsulfonyl)-[1,1′-biphenyl]-3-yl)-5-(4-((trifluoromethyl)thio)phenyl)oxazole] |
